Results taken from patent publication US9796716B2, “Selective inhibitors of Tec and Src protein kinase families” (Pharmascience, Inc., priority 2012, dated 2017).
Like-named read-outs stand apart in the source and are kept apart here.

Tests used:
[1] = system: Splenocytes (B cell proliferation stimulated with anti-IgM F(ab′)2); experiment: Splenic Cell Proliferation Assay; format: cell-based; conditions: CD1 mouse splenocytes, 2.5 ug/ml anti-IgM F(ab′)2 for 72 h, Cell Titer-Glo, read-out: EC50 (nM), Inhibition of splenic cell proliferation
Protocol: Splenic Cell Proliferation Assay
Splenocytes were obtained from 6 week old male CD1 mice (Charles River Laboratories Inc.). Mouse spleens were manually disrupted in PBS and filtered using a 70 um cell strainer followed by ammonium chloride red blood cell lysis. Cells were washed, resuspended in Splenocyte Medium (HyClone RPMI supplemented with 10% heat-inactivated FBS, 0.5× non-essential amino acids, 10 mM HEPES, 50 uM beta mercaptoethanol) and incubated at 37° C., 5% CO2 for 2 h to remove adherent cells. Suspension cells were seeded in 96 well plates at 50,000 cells per well and incubated at 37° C., 5% CO2 for 1 h. Splenocytes were pre-treated in triplicate with 10,000 nM curves of Formula 1 compounds for 1 h, followed by stimulation of B cell proliferation with 2.5 ug/ml anti-IgM F(ab′)2 (Jackson ImmunoResearch) for 72 h. Cell proliferation was measured by Cell Titer-Glo Luminescent Assay (Promega). EC50 values (50% proliferation in the presence of compound as compared to vehicle treated controls) were calculated from dose response compound curves using GraphPad Prism Software.

[2] = molecular target: recombinant human full-length Bruton Agammaglobulinemia Tyrosine Kinase (Btk) (Homo sapiens (Human), UniProt Q06187); experiment: Btk Kinase Inhibition Assay (fluorescence polarization); format: biochemical; conditions: 10 μM ATP, 250 μM substrate, 60 minutes; Ki calculated from IC50 using the Cheng-Prusoff equation
Chain of recombinant human full-length Bruton Agammaglobulinemia Tyrosine Kinase (Btk) (Q06187 whole entry): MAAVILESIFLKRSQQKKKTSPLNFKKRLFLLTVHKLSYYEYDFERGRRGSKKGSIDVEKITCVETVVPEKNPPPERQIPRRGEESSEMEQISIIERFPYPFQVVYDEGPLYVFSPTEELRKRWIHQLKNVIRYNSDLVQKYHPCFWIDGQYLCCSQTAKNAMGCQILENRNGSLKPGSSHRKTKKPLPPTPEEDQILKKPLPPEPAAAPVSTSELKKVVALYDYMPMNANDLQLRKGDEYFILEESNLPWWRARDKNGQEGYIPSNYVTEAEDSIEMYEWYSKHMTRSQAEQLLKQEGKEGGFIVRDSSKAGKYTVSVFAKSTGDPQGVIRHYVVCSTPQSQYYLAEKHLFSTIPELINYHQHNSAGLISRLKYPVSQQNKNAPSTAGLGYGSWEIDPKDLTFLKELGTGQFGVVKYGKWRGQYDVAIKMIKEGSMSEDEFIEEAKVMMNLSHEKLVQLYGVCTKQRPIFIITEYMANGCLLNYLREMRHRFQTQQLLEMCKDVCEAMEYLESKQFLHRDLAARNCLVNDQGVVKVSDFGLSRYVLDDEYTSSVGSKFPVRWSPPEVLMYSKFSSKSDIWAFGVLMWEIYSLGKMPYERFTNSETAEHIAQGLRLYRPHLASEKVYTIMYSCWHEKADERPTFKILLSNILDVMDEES
Protocol: Kinase Binding Btk Kinase Inhibition Assay
Fluorescence polarization-based kinase assays were performed in 384 well-plate format using histidine tagged recombinant human full-length Bruton Agammaglobulinemia Tyrosine Kinase (Btk) and a modified protocol of the KinEASE™ FP Fluorescein Green Assay supplied from Millipore. Kinase reaction were performed at room temperature for 60 minutes in presence of 250 μM substrate, 10 μM ATP and variable test article concentrations. The reaction was stopped with EDTA/kinase detection reagents and the polarization measured on a Tecan 500 instrument. From the dose-response curve obtained, the IC50 was calculated using Graph Pad Prisms® using a non linear fit curve. The Km for ATP on each enzyme was experimentally determined and the Ki values calculated using the Cheng-Prusoff equation (see: Cheng Y, Prusoff W H. (1973) Relationship between the inhibition constant (K1) and the concentration of inhibitor which causes 50 percent inhibition (I50) of an enzymatic reaction”. Biochem Pharmacol 22 (23): 3099-108).

Balb/c mice = experiment: Mouse Arthus; format: in vivo; conditions: oral gavage at 30 mg/kg, 1 h pre-treatment
Protocol: Mouse Arthus studies were conducted as reported in Braselmann S, Taylor V, Zhao H, Wang S, Sylvain C, Baluom M, Qu K, Herlaar E, Lau A, Young C, Wong B R, Lovell S, Sun T, Park G, Argade A, Jurcevic S, Pine P, Singh R, Grossbard E B, Payan D G, Masuda E S: R406 an orally available spleen tyrosine kinase inhibitor blocks fc receptor signaling and reduces immune-complex mediated inflammation. J Pharmacol Exp Ther, 2006, 319:998-1008.
In summary, female Balb/c mice (6-7 weeks on arrival) were habituated to the animal facility for at least 4 days. On the day of the experiment, animals were pre-treated (t=minus 1 h) with compound or vehicle alone by gavage (PO). At t=0, animals were injected intravenously (IV; 0.1 mL/mouse) with saline containing chicken ovalbumin and Evan's blue (10 mg/mL of each). Ten minutes later (t=10 min), animals were anesthesized with isoflurane, the dorsal surface was shaved and rabbit anti-chicken ovalbumin antibody was then injected intradermally at one site on the right side of the animal (25 μg in 30 μL). The same amount of isotype control antibody was then injected on the left side.
The animals were then returned to their home cage and skin punches (8 mm) were collected from each injection site four hours later. The samples were placed in 1 mL formamide overnight at 80 degrees C. (1 skin biopsy per 1 mL formamide in a glass tube). The amount of Evan's blue in the formamide solution was then assessed by spectrophotometry (630 nm) as a measure of serum extravasation into the dermis.

SMILES | Ki [2] [nM] | EC50 ([1]; Mus musculus, Splenocyte, 72 h) [nM] | efficacy in mouse Arthus (Evan's blue extravasation) (Balb/c mice) | EC50 [1] [nM]
Cn1cncc1COc1cc(F)cc(Oc2ccc(-c3nn(CCO)c4ncnc(N)c34)cc2)c1 [Compound 90] | < 100 | 100 to 1000 | demonstrated efficacy | 
Cc1ncc(COc2cc(F)cc(Oc3ccc(-c4nn(CC(C)(C)O)c5ncnc(N)c45)cc3)c2)s1 [Compound 117] | < 100 | < 100 | demonstrated efficacy | 
Cn1cncc1COc1cc(F)cc(Oc2ccc(-c3nn(C4CCOCC4)c4ncnc(N)c34)cc2)c1 [Compound 71] | < 100 | < 100 | demonstrated efficacy | 
Cc1ncc(COc2cccc(Oc3ccc(-c4nn(C5CCOCC5)c5ncnc(N)c45)cc3F)c2)s1 [Compound 62] | < 100 | < 100 | demonstrated efficacy | 
Cc1ncc(COc2cc(F)cc(Oc3ccc(-c4nn(CC5(C)COC5)c5ncnc(N)c45)cc3)c2)s1 [Compound 125] | < 100 | < 100 | demonstrated efficacy | 
Cn1cncc1COc1cc(F)cc(Oc2ccc(-c3nn(C4CCCCC4)c4ncnc(N)c34)cc2)c1 [Compound 103] | < 100 | < 100 | demonstrated efficacy | 
Cc1ncc(COc2cc(F)cc(Oc3ccc(-c4nn(C(CO)CO)c5ncnc(N)c45)cc3)c2)s1 [Compound 100] | < 100 | < 100 | demonstrated efficacy | 
Cn1cncc1COc1cc(F)cc(Oc2ccc(-c3nn(C4CCCC4)c4ncnc(N)c34)cc2)c1 [Compound 82] | < 100 | < 100 | demonstrated efficacy | 
Cc1ncc(COc2cc(F)cc(Oc3ccc(-c4nn(C5COC5)c5ncnc(N)c45)cc3)c2)s1 [Compound 113] | < 100 | < 100 |  | 
Cc1ncc(COc2cccc(Oc3ccc(-c4nn(C5CCOCC5)c5ncnc(N)c45)c(F)c3)c2)s1 [Compound 70] | < 100 | < 100 |  | 
Cc1ncc(COc2cc(F)cc(Oc3ccc(-c4nn(CCCO)c5ncnc(N)c45)cc3)c2)s1 [Compound 104] | < 100 | < 100 |  | 
CN(C)CCn1nc(-c2ccc(Oc3cccc(OCc4cncs4)c3)cc2)c2c(N)ncnc21 [Compound 34] | < 100 | 100 to 1000 |  | 
[2H]C([2H])(Oc1cc(F)cc(Oc2ccc(-c3nn(C4CCOCC4)c4ncnc(N)c34)cc2)c1)c1cncn1C [Compound 75] | < 100 | < 100 |  | 
Cn1cncc1COc1cc(F)cc(Oc2ccc(-c3nn(CC(C)(C)O)c4ncnc(N)c34)cc2)c1 [Compound 112] | < 100 | 100 to 1000 |  | 
Nc1ncnc2c1c(-c1ccc(Oc3cccc(OCc4cncs4)c3)cc1)nn2CCCN1CCOCC1 [Compound 53] | < 100 | < 100 |  | 
CC(=O)N1CCC(n2nc(-c3ccc(Oc4cccc(OCc5cncs5)c4)cc3)c3c(N)ncnc32)CC1 [Compound 47] | < 100 | < 100 |  | 
Nc1ncnc2c1c(-c1ccc(Oc3cccc(COc4ccccc4C(F)(F)F)c3)cc1)nn2C1CCOCC1 [Compound 36] | < 100 | < 100 |  | 

More lines, main results first:

Ki [2] [nM] | SMILES | EC50 ([1]; Mus musculus, Splenocyte, 72 h) [nM] | efficacy in mouse Arthus (Evan's blue extravasation) (Balb/c mice) | EC50 [1] [nM]
< 100 | Nc1ncnc2c1c(-c1ccc(Oc3cc(F)cc(OCc4cncs4)c3)cc1)nn2C1CCCC1 [Compound 50] | < 100 | demonstrated efficacy | 
< 100 | Cc1ncc(COc2cc(F)cc(Oc3ccc(-c4nn(C5CCOCC5)c5ncnc(N)c45)cc3F)c2)s1 [Compound 59] | < 100 | demonstrated efficacy | 
< 100 | N#Cc1ccccc1COc1cccc(Oc2ccc(-c3nn(C4CCCC4)c4ncnc(N)c34)cc2)c1 [Compound 15] |  | demonstrated efficacy | < 100
< 100 | Nc1ncnc2c1c(-c1ccc(Oc3cccc(OCc4cncs4)c3)cc1)nn2C1CCOCC1 [Compound 24] | < 100 | demonstrated efficacy | 
< 100 | Cc1ncc(COc2cc(F)cc(Oc3ccc(-c4nn(C5CCOCC5)c5ncnc(N)c45)cc3)c2)cn1 [Compound 106] | < 100 | demonstrated efficacy | 
< 100 | Cc1ncc(COc2cc(F)cc(Oc3ccc(-c4nn(C5CCOCC5)c5ncnc(N)c45)cc3)c2)n1C [Compound 108] | < 100 | demonstrated efficacy | 
< 100 | Cc1ncc(COc2cc(F)cc(Oc3ccc(-c4nn(C5CCCC5)c5ncnc(N)c45)cc3)c2)cn1 [Compound 107] | < 100 | demonstrated efficacy | 
< 100 | CC(C)n1nc(-c2ccc(Oc3cc(F)cc(OCc4cncn4C)c3)cc2)c2c(N)ncnc21 [Compound 79] | < 100 | demonstrated efficacy | 
< 100 | Cn1cncc1COc1cc(F)cc(Oc2ccc(-c3nn(C4CCOCC4)c4ncnc(N)c34)cc2F)c1 [Compound 72] | 100 to 1000 |  | 
< 100 | Cc1ncc(COc2cc(F)cc(Oc3ccc(-c4nn(CCCO)c5ncnc(N)c45)cc3)c2)cn1 [Compound 114] | 100 to 1000 |  | 
< 100 | Nc1ncnc2c1c(-c1ccc(Oc3cccc(COc4ccccc4C(F)(F)F)c3)cc1)nn2C1CCCC1 [Compound 32] | < 100 |  | 
< 100 | Nc1ncnc2c1c(-c1ccc(Oc3cc(F)cc(OCc4cnc[nH]4)c3)cc1)nn2C1CCOCC1 [Compound 93] | 100 to 1000 |  | 
< 100 | CC(C)C(=O)N1CCC[C@@H](n2nc(-c3ccc(Oc4cccc(OCc5ccccc5)c4)cc3)c3c(N)ncnc32)C1 [Compound 8] | < 100 |  | 
< 100 | Cc1ncc(COc2cc(F)cc(Oc3ccc(-c4nn(CCN5CCCC5)c5ncnc(N)c45)cc3)c2)s1 [Compound 57] | 100 to 1000 |  | 
< 100 | CC(=O)N1CCC[C@@H](n2nc(-c3ccc(Oc4cccc(OCc5cncs5)c4)cc3)c3c(N)ncnc32)C1 [Compound 27] | < 100 |  | 
